The text below walks through data of ChEMBL document CHEMBL1141708, “Structure-activity relationship of ortho- and meta-phenol based LFA-1 ICAM inhibitors” (Bioorg Med Chem Lett, 2008).

SMILES strings stand for the structures.

Data set [1] can be described thus: in vivo. To be noted: rat, po.
Data set [2] can be described thus: in vivo. To be noted: rat.

The bioavailability is dose-corrected exposure relative to a reference, in per cent. A low value points to little systemic uptake. For orientation: half-life means the time needed for the level to fall by half in the phase considered. High values mean slow loss, low ones fast loss. For the compound `O=C(/C=C/c1ccc(Sc2ccccc2OC[C@H]2CC[C@@H](C(=O)O)CC2)c(C(F)(F)F)c1C(F)(F)F)N1CCOCC1`, the bioavailability in data set [1] is 9%. Further, the half-life in data set [2] was 3.6 h.
On the same counts, the results for `O=C(/C=C/c1ccc(Sc2cccc(O[C@H]3CC[C@@H](C(=O)O)CC3)c2)c(C(F)(F)F)c1C(F)(F)F)N1CCOCC1` are 31% and 2.6 h.
